Results taken from patent publication US9150665B2, “Cellulose interpolymers and method of oxidation” (Eastman Chemical Company, priority 2003, dated 2015).
≈ marks a conversion by molar mass, not a printed value.

Assay: physchem
Details: for % Drug Solubilized: pH 3.9; for Sw/So: pH 4; for solubility: water
Description: The heterogeneous mixture was mixed well before carefully adjusting the pH with 0.1 N NaOH until the CA dissolved giving a clear solution. […] Four independent aqueous CA solutions were prepared by this process. […] The ethanol solution of each drug was then added slowly to the aqueous CA solutions previously prepared.
All of the samples were filtered thru 0.45 micron syringe filters before measurement. […] Solutions of each of the oxidized CA:drug mixtures were also prepared in 50/50 ethanol/Millipore water. […] All samples were immediately analyzed for the amount of drug in the solution using an UV-Vis Spectrophotometer.

| Sw (amount of drug solubilized) | % Drug Solubilized [%] | Sw/So | solubility [µg/mL] | SMILES |
| --- | --- | --- | --- | --- |
| 1.2481 g/L/25 g of drug:CAOX | 90 | 1.9 | 650 (≈ 2220 µM) | CC(C)(C#N)c1cc(Cn2cncn2)cc(C(C)(C)C#N)c1 [anastrozole] |
| 0.1461 g/L/25 g of drug:CAOX | 7 | 1.2 | 120 (≈ 421 µM) | N#Cc1ccc(C(c2ccc(C#N)cc2)n2cncn2)cc1 [letrozole] |
